Results: patent US20120258076A1, “METHOD FOR CHARACTERIZING HOST IMMUNE FUNTION BY EX VIVO INDUCTION OF OFFENSIVE AND DEFENSIVE IMMUNE MARKERS” (HITACHI CHEMICAL RESEARCH CENTER, INC., priority 2009, published 2012)

Test system: heparinized whole blood
Test: Drug screening: inhibitor preincubation of whole blood, then PBS or rIL-2 stimulation, mRNA quantification
Format: cell-based, human
Excerpt: Beta-actin expression served as a control for the expression assay. Offensive immune markers characterized included tumor necrosis factor superfamily (TNFSF) 1 (lymphotoxin), 2 (TNFα), 5 (CD40L), 6 (FasL), 8 (CD30L), 9 (CD137L), 14 (LIGHT), and 15 (TL1A). Chemokines characterized included CCL2, CCL3, CCL4, CCL8, CCL11, CCL20, CXCL1, CXCL2, CXCL3, CXCL10. Interleukins characterized include IL6, IL8, IL10, IL17, and IL23. Immune effectors characterized include GM-CSF, INFγ, CD16, Granzyme B, CD122, and TGFB-1. Markers of defensive immune function characterized include FoxP3, CTLA4, CD25, and GARP-1. Other offensive or defensive immune markers, as well as other chemokines, interleukins or effectors (among other immune-associated markers) can be tested in certain embodiments.
Shaded boxes represent a fold increase of greater than 2 as well as a statistical p value of <0.05. […] The various inhibitor compounds used to pre-treat the whole blood samples are listing on the x-axis. […] Thus, this compound has a potential to block or reduce the offensive immune response and may function as a pro-immunosuppressant compound. […] Thus, from this set of experiments, it is unclear if this particular Jak inhibitor is well-suited for promoting offensive or defensive immune responses. Further dose-response studies and/or studies with additional immune markers are necessary to elucidate the efficacy of this compound.
Embodiments of the methods described herein are also well suited to the characterization of various derivative or modified compounds, in that a single assay can generate side by side data comparing of a panel of putative derivative compounds. Moreover, based on the distinct features of the data described above, embodiments of the methods described herein are useful to detecting defensive-specific (i.e. pro-offensive) inhibitor compounds for use in clinical situations. Thus, this assay platform is useful for the analysis/screening of common and selective inhibitors for offensive and defensive immune functions.

O=C1Nc2ccccc2/C1=C1/Nc2ccccc2/C1=N\OCC(O)CO (stereo not shown) [E084]
induction of IFNγ in response to PBS or rIL-2 in presence of inhibitor (additional experiments, FIG. 4A-4B): specific inhibition
induction of TNFSF-1 in response to PBS or rIL-2 in presence of inhibitor (additional experiments, FIG. 4C-4D): specific inhibition
induction of CD25 in response to PBS or rIL-2 in presence of inhibitor (additional experiments, FIG. 4G-4H): induced
induction of FoxP3 in response to PBS or rIL-2 in presence of inhibitor (additional experiments, FIG. 4I-4J): induced

CC(C)(C)c1nc2c3cc[nH]c(=O)c3c3cc(F)ccc3c2[nH]1 [Jak inhibitor]
induction of TNFSF1 mRNA in response to rIL-2 in presence of inhibitor (inhibitor 10 mM, 1 hour preincubation, then rIL-2 100 ng/ml 4 hours, FIG. 3A): no induction
induction of CD25 mRNA in response to rIL-2 in presence of inhibitor (inhibitor 10 mM, 1 hour preincubation, then rIL-2 100 ng/ml 4 hours, FIG. 3I): blocks induction
induction of FoxP3 mRNA in response to rIL-2 in presence of inhibitor (inhibitor 10 mM, 1 hour preincubation, then rIL-2 100 ng/ml 4 hours, FIG. 3J): blocks induction
